System: β-amyloid neuritic plaque
Assay: Radiometer cap detection of head radiation signals after IV amyloid tracer, concurrent PET
Assay type: in vivo, human
Procedure: Tests were conducted using a series of radiometers positioned around subjects heads and a standard PET camera using the amyloid tracer ^18F-fluorbetapir in subjects with probable Alzheimer's disease (AD subjects) and healthy control volunteers (HC). ^18F-fluorbetapir is a radioactive diagnostic agent for positron emission tomography (PET) imaging of the brain to estimate β-amyloid neuritic plaque density in adult patients with cognitive impairment who are being evaluated for AD. PET imaging targeting β-amyloid neuritic plaque deposition has already begun playing a role in identifying individuals very early in the course of AD and monitoring progression of the disease over the course of the treatment with investigational therapeutics.
During testing, ^18F-fluorbetpir was administered intravenously as a bolus injection followed by a saline flush. […] Each subject received a single injection of the radioligand with a dose of no more than 10 mCi in a maximum volume of 10 mL.
The device included a cap fitted with up to 5 detectors at various 10-20 EEG positions which was placed on the subject's head. The subjects were asked to avoid any movements of the head and to remain immobilized as much as possible. Additional detectors were secured to one ankle and the chin to obtain an indirect measure of the activity in the blood, and to monitor activity in the head respectively. […] Detector specific count rates and total counts were measured continuously for up to 3 hours. The count rate and total counts were compared in the AD subjects and HC subjects to extrapolate qualitative and quantitative pattern differences. […]
For processing purposes, detected radiation signals were decay corrected to the time of injection. The counts were recorded in 4 second intervals, which were then median filtered using a 2 minute window. […]
To quantify this, a constrained bi-exponential model was fit to the 10-65 minute period of each of the detectors, as well as the sum of the brain signals (excluding the chin, ankle and tip top detectors). […]

ankle detector signal after injection (ankle detector, all subjects, IV bolus): steadily climbed
alpha phase of bi-exponential fit, healthy versus AD subjects (bi-exponential fit of 10-65 minute period, alpha phase limited to 5-30 min half-life): faster alpha phase
initial washout of signal in healthy subjects versus AD subjects (head detectors, healthy subjects): faster initial washout
SMILES: CNc1ccc(/C=C/c2ccc(OCCOCCOCCF)nc2)cc1 [^18F-fluorbetapir]

Source: US11660054B2, “Medical diagnostic and treatment systems and their methods of use” (Biogen MA Inc., priority 2016, dated 2023)
